Laboratory results reported in patent US9278962B2 (Cytokinetics, Inc., priority 2011, dated 2016).

Tested on: rabbit skeletal myofibrils (approximately 90% fast fibers)
Test: Activation of fast skeletal myofibrils (PUMA coupled-enzyme ATPase assay, AC1.4)
Format: biochemical
Settings: concentration at which the compound increased enzymatic activity by 40%, calcium at pCa25

Mean AC1.4 (Table 2)	SMILES	further results
D (D=>20 uM)	COc1cccc(C(C)c2nsc(N(C)CC(C)(C)c3ccc(F)cc3)n2)c1 (stereo not drawn) [[2-(4-fluorophenyl)-2-methylpropyl]{3-[(3-methoxyphenyl)ethyl](1,2,4-thiadiazol-5-yl)}methylamine]	
A (A=<1 uM)	COc1cccc(Cc2nsc(NCC(C)(C)c3ccc(F)cc3)n2)c1 [[2-(4-fluorophenyl)-2-methylpropyl]{3-[(3-methoxyphenyl)methyl](1,2,4-thiadiazol-5-yl)}amine]	
D (D=>20 uM)	COc1cccc(Cc2nsc(N(C)CC(C)(C)c3ccc(F)cc3)n2)c1 [[2-(4-fluorophenyl)-2-methylpropyl]{3-[(3-methoxyphenyl)methyl](1,2,4-thiadiazol-5-yl)}methylamine]	
A (A=<1 uM)	COc1ccc(Cc2nsc(NCC(C)(C)c3ccc(F)cc3)n2)cc1 [[2-(4-fluorophenyl)-2-methylpropyl]{3-[(4-methoxyphenyl)methyl](1,2,4-thiadiazol-5-yl)}amine]	
C (C=10-20 uM)	CN1CCN(Cc2nsc(NCC(C)(C)c3ccc(F)cc3)n2)CC1 [[2-(4-fluorophenyl)-2-methylpropyl]{3-[(4-methylpiperazinyl)methyl](1,2,4-thiadiazol-5-yl)}amine]	
C (C=10-20 uM)	CC(C)Nc1nsc(NCC(C)(C)c2ccc(F)cc2)n1 [[2-(4-fluorophenyl)-2-methylpropyl]{3-[(methylethyl)amino](1,2,4-thiadiazol-5-yl)}amine]	
B (B=1-10 uM)	COc1cccc(Cc2nsc(NCCc3ccc(F)cc3)n2)c1 [[2-(4-fluorophenyl)ethyl]{3-[(3-methoxyphenyl)methyl](1,2,4-thiadiazol-5-yl)}amine]	
B (B=1-10 uM)	Fc1ccc(CCNc2nc(Cc3ccc(F)cc3)ns2)cc1 [[2-(4-fluorophenyl)ethyl]{3-[(4-fluorophenyl)methyl](1,2,4-thiadiazol-5-yl)}amine]	
D (D=>20 uM)	COc1ccc(CCNc2nc(Cc3cccc(OC)c3)ns2)cc1 [[2-(4-methoxyphenyl)ethyl]{3-[(3-methoxyphenyl)methyl](1,2,4-thiadiazol-5-yl)}amine]	
D (D=>20 uM)	COc1ccc(CCNc2nc(Cc3ccc(C)cc3)ns2)cc1 [[2-(4-methoxyphenyl)ethyl]{3-[(4-methylphenyl)methyl](1,2,4-thiadiazol-5-yl)}amine]	
D (D=>20 uM)	CN(C)CCc1nsc(NCC(C)(C)c2ccc(F)cc2)n1 [[2-(5-{[2-(4-fluorophenyl)-2-methylpropyl]amino}(1,2,4-thiadiazol-3-yl))ethyl]dimethylamine]	
B (B=1-10 uM)	CC(C)(CNc1nc(-c2ccccc2CO)ns1)c1ccc(F)cc1 [[2-(5-{[2-(4-fluorophenyl)-2-methylpropyl]amino}-1,2,4-thiadiazol-3-yl)phenyl]methan-1-ol]	
D (D=>20 uM)	CN(C)CCN(C)c1nsc(NCC(C)(C)c2ccc(F)cc2)n1 [[2-(dimethylamino)ethyl](5-{[2-(4-fluorophenyl)-2-methylpropyl]amino}(1,2,4-thiadiazol-3-yl))methylamine]	
B (B=1-10 uM)	COc1ccc(-c2nsc(NCC(C)(C)c3ccc(F)cc3)n2)c(Cl)c1 [[3-(2-chloro-4-methoxyphenyl)(1,2,4-thiadiazol-5-yl)][2-(4-fluorophenyl)-2-methylpropyl]amine]	
A (A=<1 uM)	CC(C)(CNc1nc(-c2ccc3[nH]nc(N)c3c2)ns1)c1ccc(F)cc1 [[3-(3-amino(1H-indazol-5-yl))(1,2,4-thiadiazol-5-yl)][2-(4-fluorophenyl)-2-methylpropyl]amine]	
A (A=<1 uM)	CC(C)(CNc1nc(-c2ccc3c(N)n[nH]c3c2)ns1)c1ccc(F)cc1 [[3-(3-amino(1H-indazol-6-yl))(1,2,4-thiadiazol-5-yl)][2-(4-fluorophenyl)-2-methylpropyl]amine]	
B (B=1-10 uM)	CC(C)(CNc1nc(-c2ccc(F)cc2)ns1)c1ccc(F)cc1 [[3-(4-fluorophenyl)(1,2,4-thiadiazol-5-yl)][2-(4-fluorophenyl)-2-methylpropyl]amine]	
B (B=1-10 uM)	CN(C)C(=O)c1cccc(-c2nsc(NCC(C)(C)c3ccc(F)cc3)n2)c1 [[3-(5-{[2-(4-fluorophenyl)-2-methylpropyl]amino}(1,2,4-thiadiazol-3-yl))phenyl]-N,N-dimethylcarboxamide]	
A (A=<1 uM)	CNC(=O)c1cccc(-c2nsc(NCC(C)(C)c3ccc(F)cc3)n2)c1 [[3-(5-{[2-(4-fluorophenyl)-2-methylpropyl]amino}(1,2,4-thiadiazol-3-yl))phenyl]-N-methylcarboxamide]	
B (B=1-10 uM)	CC(C)(CNc1nc(CCCNS(C)(=O)=O)ns1)c1ccc(F)cc1 [[3-(5-{[2-(4-fluorophenyl)-2-methylpropyl]amino}(1,2,4-thiadiazol-3-yl))propyl](methylsulfonyl)amine]	
B (B=1-10 uM)	CC(C)(CNc1nc(-c2cccc(CO)c2)ns1)c1ccc(F)cc1 [[3-(5-{[2-(4-fluorophenyl)-2-methylpropyl]amino}-1,2,4-thiadiazol-3-yl)phenyl]methan-1-ol]	

Mean AC1.4 (Table 2)	SMILES	further results
B (B=1-10 uM)	COC/C=C/c1nsc(NCC(C)(C)c2ccc(F)cc2)n1 [[3-((1E)-3-methoxyprop-1-enyl)(1,2,4-thiadiazol-5-yl)][2-(4-fluorophenyl)-2-methylpropyl]amine]	
A (A=<1 uM)	CNC(=O)c1ccc(-c2nsc(NCC(C)(C)c3ccc(F)cc3)n2)cc1 [[4-(5-{[2-(4-fluorophenyl)-2-methylpropyl]amino}(1,2,4-thiadiazol-3-yl))phenyl]-N-methylcarboxamide]	
B (B=1-10 uM)	CC(C)(CNc1nc(-c2ccc(CO)cc2)ns1)c1ccc(F)cc1 [[4-(5-{[2-(4-fluorophenyl)-2-methylpropyl]amino}-1,2,4-thiadiazol-3-yl)phenyl]methan-1-ol]	
B (B=1-10 uM)	CNC(=O)c1ccc(-c2nsc(NCC(C)(C)c3ccc(F)cc3)n2)cn1 [[5-(5-{[2-(4-fluorophenyl)-2-methylpropyl]amino}(1,2,4-thiadiazol-3-yl))(2-pyridyl)]-N-methylcarboxamide]	
B (B=1-10 uM)	COc1cccc(Cc2nsc(NC[C@H](C)c3ccc(F)cc3)n2)c1 [[(2R)-2-(4-fluorophenyl)propyl]{3-[(3-methoxyphenyl)methyl](1,2,4-thiadiazol-5-yl)}amine]	
B (B=1-10 uM)	C[C@H](CNc1nc(-c2cn[nH]c2)ns1)c1ccc(F)cc1 [[(2S)-2-(4-fluorophenyl)propyl](3-pyrazol-4-yl(1,2,4-thiadiazol-5-yl))amine]	
A (A=<1 uM)	COc1cccc(Cc2nsc(NC[C@@H](C)c3ccc(F)cc3)n2)c1 [[(2S)-2-(4-fluorophenyl)propyl]{3-[(3-methoxyphenyl)methyl](1,2,4-thiadiazol-5-yl)}amine]	
D (D=>20 uM)	COc1cccc(Cc2nsc(NCc3ccc(Cl)c(Cl)c3)n2)c1 [[(3,4-dichlorophenyl)methyl]{3-[(3-methoxyphenyl)methyl](1,2,4-thiadiazol-5-yl)}amine]	
D (D=>20 uM)	Fc1ccc(Cc2nsc(NCc3ccc(Cl)c(Cl)c3)n2)cc1 [[(3,4-dichlorophenyl)methyl]{3-[(4-fluorophenyl)methyl])1,2,4-thiadiazol-5-yl)}amine]	
D (D=>20 uM)	COc1cccc(Cc2nsc(NCc3ccc(Cl)cc3)n2)c1 [[(4-chlorophenyl)methyl]{3-[(3-methoxyphenyl)methyl](1,2,4-thiadiazol-5-yl)}amine]	
D (D=>20 uM)	Clc1ccc(CNc2nc(Cc3ccc(Cl)cc3)ns2)cc1 [[(4-chlorophenyl)methyl]{3-[(4-chlorophenyl)methyl](1,2,4-thiadiazol-5-yl)}amine]	
D (D=>20 uM)	Fc1ccc(Cc2nsc(NCc3ccc(Cl)cc3)n2)cc1 [[(4-chlorophenyl)methyl]{3-[(4-fluorophenyl)methyl])1,2,4-thiadiazol-5-yl)}amine]	
D (D=>20 uM)	CN(C)Cc1nsc(NCC(C)(C)c2ccc(F)cc2)n1 [[(5-{[2-(4-fluorophenyl)-2-methylpropyl]amino}(1,2,4-thiadiazol-3-yl))methyl]dimethylamine]	
D (D=>20 uM)	CNCc1nsc(NCC(C)(C)c2ccc(F)cc2)n1 [[(5-{[2-(4-fluorophenyl)-2-methylpropyl]amino}(1,2,4-thiadiazol-3-yl))methyl]methylamine]	
	CCOC(=O)c1ccc2nc(NCC(C)(C)c3ccc(F)cc3)sc2c1 [ethyl 2-(2-(4-fluorophenyl)-2-methylpropylamino)benzo[d] thiazole-6-carboxylate]	Mean AC1.4 (Table 4): B (B=1-10 uM)
B (B=1-10 uM)	CCOC(=O)CCc1nsc(NCC(C)(C)c2ccc(F)cc2)n1 [ethyl 3-(5-{[2-(4-fluorophenyl)-2-methylpropyl]amino}-1,2,4-thiadiazol-3-yl)propanoate]	
D (D=>20 uM)	CCOC(=O)/C=C/c1nsc(NCC(C)(C)c2ccc(F)cc2)n1 [ethyl (2E)-3-(5-{[2-(4-fluorophenyl)-2-methylpropyl]amino}(1,2,4-thiadiazol-3-yl))prop-2-enoate]	
D (D=>20 uM)	COC(=O)CNc1nc(-c2cccc(C#N)c2)ns1 [methyl 2-{[3-(3-cyanophenyl)-1,2,4-thiadiazol-5-yl]amino}acetate]	
D (D=>20 uM)	COC(=O)N1CCN(CCc2nsc(NCC(C)(C)c3ccc(F)cc3)n2)CC1 [methyl 4-[2-(5-{[2-(4-fluorophenyl)-2-methylpropyl]amino}-1,2,4-thiadiazol-3-yl)ethyl]piperazinecarboxylate]	
C (C=10-20 uM)	COC(=O)N1CCN(Cc2nsc(NCC(C)(C)c3ccc(F)cc3)n2)CC1 [methyl 4-[(5-{[2-(4-fluorophenyl)-2-methylpropyl]amino}-1,2,4-thiadiazol-3-yl)methyl]piperazinecarboxylate]	
	COC(=O)c1ccc(F)c(-c2nnc(NC[C@]3(c4ncccc4F)C[C@H](F)C3)s2)c1 [methyl 4-fluoro-3-(5-((3-fluoro-1-(3-fluoropyridin-2-yl)cyclobutyl)methylamino)-1,3,4-thiadiazol-2-yl)benzoate]	Mean AC1.4 (Table 3): B (B=1-10 uM)
